Measured values published in publication PMC8456958, “Selective Bacterial Targeting and Infection‐Triggered Release of Antibiotic Colistin Conjugates” (Angewandte Chemie (International Ed. in English), 2021).
In brackets after ≈: the same amount, converted by molar mass. Positions of bridges follow the written chain, without caps; N, C: chain ends. Non-standard residues stand in square brackets, D forms with d. Residues, ends and D or L forms follow the SMILES beside them. *: point of attachment. Heptanoyl(6-Me) = CC(C)CCCCC(=O)*; Dab = NCC[C@H](N)C(=O)O

Assays:
E. coli K12 = assay type: cell-based, Escherichia coli
Method: Determination of antibacterial activities by broth dilution assay
Bacterial suspensions at 5-6 x 10^5 CFU (1:1000 dilution of a bacterial suspension of OD600 = 1) in T-medium were incubated in volumes of 200 µl in sterile clear 96-well microtiter plates at 37 °C in a wet chamber with serial dilution of peptide-colistin constructs and controls (32 – 0.016 µM) for 18 h.
External neutrophil elastase was added at 10 mU/ml or 100 mU/ml to each well at the start of incubation, where indicated. After the incubation, the plate was placed for 5 min on a MTP shaker to generate homogenous bacterial suspensions. OD600 was then determined in a microplate reader. The wells with the lowest compound concentration without growth defined the MICs. […]
Figure S7. Heat plot of the growth of E. coli K12 and E. coli DSM 1116 in presence of 6. Rows A-D: E. coli K12; Rows E-H: E. coli DSM 1116; A + E colistin; B + F peptide-colistin construct 6; C + G peptide-colistin construct 6 + 10 mU/ml elastase; D + H bacteria without compounds. The numbers below the heatplot depict the concentration of colistin and peptides in µM. Conditions: T medium, incubation 20 h at 37 °C in wet chamber; inoculum: cultures at OD = 1.0 diluted 1:1000 (5-6 x 10^5 CFU/ml). […]
Figure S10. Heat plot of the growth of E. coli in presence of 48 and 49. Row A: E. coli K12 without added compounds; B colistin B; C peptide-colistin construct 49; D peptide-colistin construct 49 + 10 mU/ml elastase; E ElsaSub-colistin; F 48 with 10 mU elastase; G 4; H 4 with […]. The numbers depict the concentration of colistin and peptides in µM. Conditions: T medium, incubation 17.5 h at 37 °C in wet chamber; inoculum 5-6 x 10^5 CFU/ml. […]
with elastase 10 mU/ml pos-1-isomer (22) […]
with elastase 10 mU/ml pos-3-isomer (28) […]
with elastase 10 mU/ml pos-5-isomer (34) […]
with elastase 10 mU/ml pos-8-isomer (40) […]
with elastase 10 mU/ml pos-9-isomer (46)
Figure S11. Heat plot of the growth of E. coli in presence of positional isomers obtained by total chemical synthesis. Conditions: T medium, incubation for 20 h at 37 °C in wet chamber; inoculum 5-6 x 10^5 CFU/ml. Addition of neutrophil elastase at 10 and 100 mU/ml, as indicated. Concentrations of isomers stated below the heat plot in µg/ml. […]

E. coli DSM 1116 = assay type: cell-based, Escherichia coli; conditions: Table 1; without elastase; broth dilution, T-medium, 5-6 x 10^5 CFU, 37 °C, OD600 readout
Method: min at rt, and blood smears were prepared on microscopy slides that were air-dried in the dark. Phase contrast and fluorescence (485/520 nm) microscopy pictures were captured with a Zeiss Axiovert with a 40× APO 1.4 lens. For quantification of fluorescence, pictures were analyzed by using ImageJ (v1.52).
Outlines were drawn around each cell and circularity, area and mean fluorescence were determined.
In addition, several background readings were taken at empty areas. Total corrected cellular fluorescence (TCCF) = integrated density – (area of selected cell × mean fluorescence of background readings), was calculated for 200 bacteria for each assay.
Determination of antibacterial activities by broth dilution assay […]
External neutrophil elastase was added at 10 mU/ml or 100 mU/ml to each well at the start of incubation, where indicated. […] OD600 was then determined in a microplate reader. […]
Quantification of 1, 6 and 7
To 50 µl samples 50 µl acetic acid were added and the samples were filtered through 10 kDa ultrafiltration columns (Amicon Ultra 0.5 ml, Millipore) by centrifugation for 60 min at 14.000 x g and 4 °C. […] Colistin was quantified on a Q-Trap 6500 HPLC-MS with samples of 5 µl each as described above. […]

[1] = Table 2, E. coli K12, conservative MIC readouts of at least three independent biological experiments

## CC(C)CCCCC(=O)N[C@@H](CCN)C(=O)N[C@H](C(=O)N[C@@H](CCN)C(=O)N[C@H]1CCNC(=O)[C@H]([C@@H](C)O)NC(=O)[C@H](CCN)NC(=O)[C@H](CCN)NC(=O)[C@H](CC(C)C)NC(=O)[C@@H](CC(C)C)NC(=O)[C@H](CCN)NC1=O)[C@@H](C)O [Compound 1, colistin B, reference compound] ({Heptanoyl(6-Me)}-[Dab]T[Dab][Dab][Dab][dL]L[Dab][Dab]T; lactam 4-C)
E. coli K12; Table 1, without elastase, broth dilution, T-medium, 5-6 x 10^5 CFU, 37 °C, OD600 readout
  MIC, E. coli K12: 0.063 µM (≈ 0.0728 µg/mL)
E. coli K12; [1]
  MIC with 10 mU mL^−1 Elastase: 0.031 µM
  MIC with 100 mU mL^−1 Elastase: 0.031 µM
  MIC without Elastase: 0.031 µM (≈ 0.0358 µg/mL)
E. coli DSM 1116
  MIC, E. coli DSM 1116: 0.063 µM (≈ 0.0728 µg/mL)
